Data on four molecules can be found in patent US8710045B2, “Agents for preventing and treating disorders involving modulation of the ryanodine receptors” (The Trustees of Columbia University in the City of New York, priority 2004, dated 2014).

Data set [1] relates to FKBP12.6+/− mice.
In data set [2] the test system is RyR2. Conditions: wildtype mice, 0.5 mg/kg/h for 28 days post-myocardial infarction.
Excerpt: Equivalent amounts of RyR2 are immunoprecipitated with an antibody against RyR2 (top blot).
Data set [3] has as its system skeletal muscle. The conditions noted are these: five weeks after left coronary artery ligation; cited from earlier work.
The target of data set [4] is T1, PKA-phosphorylated RyR2 (Homo sapiens, UniProt Q92736).
T1 construct: from tissue
T1 sequence (Q92736 whole entry): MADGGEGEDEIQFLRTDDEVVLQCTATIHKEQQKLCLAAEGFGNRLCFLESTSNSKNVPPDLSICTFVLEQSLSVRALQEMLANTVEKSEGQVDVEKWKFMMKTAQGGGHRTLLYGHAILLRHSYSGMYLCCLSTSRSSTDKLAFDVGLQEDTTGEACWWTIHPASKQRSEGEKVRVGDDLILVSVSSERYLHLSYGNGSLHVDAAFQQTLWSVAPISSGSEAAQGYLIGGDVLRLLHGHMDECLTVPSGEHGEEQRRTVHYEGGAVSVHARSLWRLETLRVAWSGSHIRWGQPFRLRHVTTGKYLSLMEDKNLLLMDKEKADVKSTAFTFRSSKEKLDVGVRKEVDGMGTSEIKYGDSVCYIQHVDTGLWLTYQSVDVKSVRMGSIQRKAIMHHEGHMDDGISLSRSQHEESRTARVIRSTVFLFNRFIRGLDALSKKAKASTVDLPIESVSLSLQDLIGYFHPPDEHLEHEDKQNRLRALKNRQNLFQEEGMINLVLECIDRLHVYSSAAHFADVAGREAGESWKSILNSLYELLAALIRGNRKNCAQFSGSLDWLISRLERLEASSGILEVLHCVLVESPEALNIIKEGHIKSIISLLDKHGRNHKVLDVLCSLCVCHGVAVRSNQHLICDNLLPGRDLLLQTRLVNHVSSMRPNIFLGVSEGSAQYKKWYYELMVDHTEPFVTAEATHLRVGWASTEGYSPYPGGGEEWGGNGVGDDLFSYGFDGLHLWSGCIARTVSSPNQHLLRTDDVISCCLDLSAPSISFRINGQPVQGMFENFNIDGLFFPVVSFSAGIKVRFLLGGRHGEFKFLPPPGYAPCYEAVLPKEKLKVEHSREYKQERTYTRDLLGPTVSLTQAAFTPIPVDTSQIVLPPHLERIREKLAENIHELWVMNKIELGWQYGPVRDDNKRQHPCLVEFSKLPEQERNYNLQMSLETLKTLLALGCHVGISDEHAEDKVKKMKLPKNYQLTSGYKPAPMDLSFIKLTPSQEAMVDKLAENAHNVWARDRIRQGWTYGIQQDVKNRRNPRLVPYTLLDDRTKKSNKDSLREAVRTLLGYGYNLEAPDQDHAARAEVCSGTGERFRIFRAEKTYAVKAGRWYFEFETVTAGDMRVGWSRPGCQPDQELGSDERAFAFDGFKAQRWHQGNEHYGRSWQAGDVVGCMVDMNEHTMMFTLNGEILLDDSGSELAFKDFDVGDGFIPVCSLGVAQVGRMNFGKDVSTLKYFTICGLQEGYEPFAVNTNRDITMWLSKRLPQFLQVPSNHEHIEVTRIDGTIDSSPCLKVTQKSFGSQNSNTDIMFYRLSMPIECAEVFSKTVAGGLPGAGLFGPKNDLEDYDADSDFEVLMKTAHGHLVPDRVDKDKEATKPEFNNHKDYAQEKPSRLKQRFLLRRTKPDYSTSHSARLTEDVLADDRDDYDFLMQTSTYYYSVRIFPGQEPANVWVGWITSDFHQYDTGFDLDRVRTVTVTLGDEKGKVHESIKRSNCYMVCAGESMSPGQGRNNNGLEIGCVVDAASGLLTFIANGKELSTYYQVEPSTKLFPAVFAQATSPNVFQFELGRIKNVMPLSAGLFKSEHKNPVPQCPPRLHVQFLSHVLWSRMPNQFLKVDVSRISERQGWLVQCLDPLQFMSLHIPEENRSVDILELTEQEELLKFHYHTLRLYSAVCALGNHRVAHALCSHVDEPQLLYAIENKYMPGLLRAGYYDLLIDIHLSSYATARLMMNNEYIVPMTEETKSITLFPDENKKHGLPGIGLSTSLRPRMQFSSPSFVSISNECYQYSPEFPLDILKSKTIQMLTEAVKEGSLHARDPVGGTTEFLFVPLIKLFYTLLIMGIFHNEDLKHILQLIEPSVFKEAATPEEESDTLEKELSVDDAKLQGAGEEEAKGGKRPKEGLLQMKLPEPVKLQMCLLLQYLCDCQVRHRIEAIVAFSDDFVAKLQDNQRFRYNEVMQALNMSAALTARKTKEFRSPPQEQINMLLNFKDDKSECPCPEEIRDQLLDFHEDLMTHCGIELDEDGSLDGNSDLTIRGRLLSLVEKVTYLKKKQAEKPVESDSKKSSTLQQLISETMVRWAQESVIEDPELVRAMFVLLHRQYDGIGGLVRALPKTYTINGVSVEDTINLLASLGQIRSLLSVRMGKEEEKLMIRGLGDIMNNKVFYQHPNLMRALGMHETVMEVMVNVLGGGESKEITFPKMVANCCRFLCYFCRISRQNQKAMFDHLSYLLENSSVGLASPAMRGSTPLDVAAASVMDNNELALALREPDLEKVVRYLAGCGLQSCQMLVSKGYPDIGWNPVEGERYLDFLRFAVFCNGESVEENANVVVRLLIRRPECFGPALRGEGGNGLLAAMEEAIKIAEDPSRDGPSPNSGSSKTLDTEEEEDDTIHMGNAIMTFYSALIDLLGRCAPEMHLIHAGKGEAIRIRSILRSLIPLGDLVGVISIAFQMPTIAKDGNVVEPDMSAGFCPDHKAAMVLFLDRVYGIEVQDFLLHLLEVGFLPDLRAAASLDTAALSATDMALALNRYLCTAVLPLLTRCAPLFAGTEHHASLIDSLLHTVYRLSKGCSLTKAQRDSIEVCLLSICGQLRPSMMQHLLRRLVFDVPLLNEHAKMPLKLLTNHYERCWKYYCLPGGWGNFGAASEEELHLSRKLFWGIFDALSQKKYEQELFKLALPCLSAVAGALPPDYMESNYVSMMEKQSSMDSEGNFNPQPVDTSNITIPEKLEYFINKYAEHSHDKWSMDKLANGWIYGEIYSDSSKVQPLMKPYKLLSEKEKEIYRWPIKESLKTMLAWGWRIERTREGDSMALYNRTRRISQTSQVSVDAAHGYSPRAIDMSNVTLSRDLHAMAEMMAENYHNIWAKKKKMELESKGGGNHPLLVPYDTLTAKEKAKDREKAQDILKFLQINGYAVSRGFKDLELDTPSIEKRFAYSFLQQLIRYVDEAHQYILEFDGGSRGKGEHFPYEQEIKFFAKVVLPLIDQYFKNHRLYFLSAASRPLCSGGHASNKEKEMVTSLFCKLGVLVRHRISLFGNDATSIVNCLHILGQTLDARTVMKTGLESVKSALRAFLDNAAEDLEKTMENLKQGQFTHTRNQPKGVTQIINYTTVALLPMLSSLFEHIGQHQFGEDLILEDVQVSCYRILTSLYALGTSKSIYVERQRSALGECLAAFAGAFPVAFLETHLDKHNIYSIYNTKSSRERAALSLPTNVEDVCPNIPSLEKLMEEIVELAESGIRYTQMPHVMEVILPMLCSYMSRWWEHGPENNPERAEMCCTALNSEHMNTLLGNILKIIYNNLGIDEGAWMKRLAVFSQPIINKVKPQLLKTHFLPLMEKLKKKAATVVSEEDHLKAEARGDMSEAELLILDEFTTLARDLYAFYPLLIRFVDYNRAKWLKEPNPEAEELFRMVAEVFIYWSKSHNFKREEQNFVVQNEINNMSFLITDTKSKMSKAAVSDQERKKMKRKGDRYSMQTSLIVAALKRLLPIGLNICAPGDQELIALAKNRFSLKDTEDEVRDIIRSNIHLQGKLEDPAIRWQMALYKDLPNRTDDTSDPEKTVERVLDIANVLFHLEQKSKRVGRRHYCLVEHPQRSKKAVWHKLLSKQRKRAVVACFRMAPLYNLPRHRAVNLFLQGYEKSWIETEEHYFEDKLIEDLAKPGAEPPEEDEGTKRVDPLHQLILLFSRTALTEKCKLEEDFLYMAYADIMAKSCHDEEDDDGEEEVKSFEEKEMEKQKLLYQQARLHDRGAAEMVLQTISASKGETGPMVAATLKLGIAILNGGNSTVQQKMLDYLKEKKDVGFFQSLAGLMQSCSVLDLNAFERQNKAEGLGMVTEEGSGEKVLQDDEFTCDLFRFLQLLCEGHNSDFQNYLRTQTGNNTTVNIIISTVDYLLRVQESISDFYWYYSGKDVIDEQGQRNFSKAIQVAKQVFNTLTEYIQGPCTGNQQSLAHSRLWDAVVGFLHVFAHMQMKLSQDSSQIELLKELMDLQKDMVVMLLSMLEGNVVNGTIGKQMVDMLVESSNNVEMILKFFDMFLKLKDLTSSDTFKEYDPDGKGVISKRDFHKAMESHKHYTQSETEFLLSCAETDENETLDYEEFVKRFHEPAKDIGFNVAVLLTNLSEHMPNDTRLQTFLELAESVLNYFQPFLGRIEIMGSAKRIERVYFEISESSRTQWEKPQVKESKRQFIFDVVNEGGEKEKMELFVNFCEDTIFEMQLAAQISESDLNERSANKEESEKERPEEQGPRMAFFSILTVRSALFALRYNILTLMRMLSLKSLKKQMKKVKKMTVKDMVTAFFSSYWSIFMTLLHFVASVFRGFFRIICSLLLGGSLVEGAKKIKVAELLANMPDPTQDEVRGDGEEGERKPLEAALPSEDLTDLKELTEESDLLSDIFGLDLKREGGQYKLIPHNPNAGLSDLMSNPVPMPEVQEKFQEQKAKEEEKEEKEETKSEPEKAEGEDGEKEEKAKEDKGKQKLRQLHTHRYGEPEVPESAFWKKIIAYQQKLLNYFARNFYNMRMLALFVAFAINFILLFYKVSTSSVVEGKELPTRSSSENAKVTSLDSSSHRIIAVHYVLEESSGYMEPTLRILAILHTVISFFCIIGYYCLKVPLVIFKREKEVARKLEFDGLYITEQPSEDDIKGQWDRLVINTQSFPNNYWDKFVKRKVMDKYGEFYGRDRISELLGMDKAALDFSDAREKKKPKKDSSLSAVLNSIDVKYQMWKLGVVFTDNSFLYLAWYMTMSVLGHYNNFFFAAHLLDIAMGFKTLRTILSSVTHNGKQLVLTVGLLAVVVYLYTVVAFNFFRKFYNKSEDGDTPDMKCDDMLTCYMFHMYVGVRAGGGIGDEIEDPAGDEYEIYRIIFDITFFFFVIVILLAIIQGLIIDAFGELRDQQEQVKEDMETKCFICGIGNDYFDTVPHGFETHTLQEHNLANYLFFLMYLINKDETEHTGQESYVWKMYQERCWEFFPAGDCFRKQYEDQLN
T1 sequence (P68106 whole entry partner): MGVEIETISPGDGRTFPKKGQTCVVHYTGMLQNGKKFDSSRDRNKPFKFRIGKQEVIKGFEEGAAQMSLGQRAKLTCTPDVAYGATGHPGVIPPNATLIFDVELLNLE
In words: FKBP12.6 rebinding assay: FKBP12.6 binding to PKA-phosphorylated RyR2 in cardiac SR. The conditions noted are these: compound 0.5-1000 nM; Michaelis-Menten curve fitting. As to the method: Samples are centrifuged at 95,000 g for 10 min and the pellets are washed three times in 0.2 ml imidazole buffer. The final pellets are pooled and resuspended in imidazole buffer (final concentration≈10 μg/μl). […] Samples then are centrifuged at 100,000 g for 10 minutes and pellets washed 3 times with imidizol buffer. […] Immunoblots are developed using an anti-FKBP antibody (1:3,000 dilution). […] The intracellular solution contains (in mM): CsCl, 60; CaCl2, 1; EGTA, 11; MgCl2, 1; K2ATP, 5; HEPES, 10; aspartic acid, 50; pH 7.4 (CsOH). Under these conditions, it is expected that the measured current was carried by Ba^2+ primarily through L-type calcium channels which is referred to as ICa,L. Drugs are applied by a local solution changer and reach the cell membrane within 1 s.
The FKBP12.6 rebinding assay described above is used to determine the amount of FKBP12.6 binding to PKA-phosphorylated RyR2 at various concentrations (0.5-1000 nM) of the compounds shown. EC50 values are calculated using Michaelis-Menten curve fitting.
The EC50 values are calculated using Michaelis-Menten curve fitting.

The target in data set [5] is hERG current (Homo sapiens, UniProt Q12809). Description: hERG current, PatchXpress 7000A automatic parallel patch clamp in hERG-transfected HEK 293 cells (Example 6). Conditions: for Individual Data (% Inhibition): single cell. As to the method:
(§1) HEK293 cells were transfected with a plasmid containing the hERG cDNA and a neomycin resistance gene. Stable transfectants were selected by culturing the cells in the presence of G418. The selection pressure was maintained by continued culture in the presence of G418. […] Cells for use in electrophysiology were cultured in 35 mm dishes.
(§2) Onset and steady state block of hERG current was measured using a pulse pattern with fixed amplitudes (conditioning prepulse: +20 mV for 2 seconds; test pulse: −50 mV for 2 seconds) repeated at 10 second intervals, from a holding potential of −80 mV. Peak tail current was measured during the 2 second step to −50 mV. A steady state was maintained for at least 30 seconds before applying the test compound or the positive control. Peak tail current was monitored until a new steady state was achieved. Test compound concentrations were applied cumulatively in ascending order without washout between applications.
(§3) Data acquisition and analysis was performed using the suite of pCLAMP (Vre. 8.2) programs (Axon Instruments, Union City, Calif.). Steady state was defined by the limiting constant rate of change with time (linear time dependence). The steady state before and after application of the test or control compounds was used to calculate the percentage of current inhibited at each concentration. […] Nonlinear squares fits were solved with the Solver add-in for Excel 2000 (Microsoft, Redmond, Wash.).
(§4) Multiple compounds of the invention were tested for their effects on hERG currents. The compounds tested were: ARM036-Na, ARM047, ARM048, ARM050, ARM057, ARM064, ARM074, ARM075, ARM076, ARM077, ARM101, ARM102, ARM103, ARM104, ARM106, ARM107 and ARM26. […] Electrophysiological recordings were made using the PatchXpress 7000 A (Molecular Devices) automatic parallel patch clamp system. […] The duration of exposure to each test concentration was 5 minutes.

Data set [6] concerns the target hERG (Homo sapiens, UniProt Q12809). Described as above. The conditions noted are these: human, HEK 293 cells stably transfected with hERG cDNA. As to the method:
as §1, §2, §3, §4

Where [7] appears, read: Individual Data (% Inhibition), single cell.
The mark [8] stands for this setting: Individual Data (% Inhibition), 10 μM, single cell.
Setting [9] is: hERG current inhibition at the highest concentration tested, highest concentration tested (10 μM).

`COc1ccc2c(c1)CN(C(=O)CCN1CCC(Cc3ccccc3)CC1)CCS2.Cl` [JTV-519, 4-[3-(4-benzylpiperidin-1-yl)propionyl]-7-methoxy-2,3,4,5-tetrahydro-1,4-benzothiazepine monohydrochloride]: the “resting heart rate or other ECG parameters” value in data set [1] (0.5 mg/kg/h for 7 days, osmotic mini-pump) is listed as “no effect”. In data set [1] (plasma level 1 μM), the “cardiac arrhythmias and sudden cardiac death” value was “prevent”. Moreover, the “PKA phosphorylation of RyR2 at Ser-2808” value in data set [2] is “reduces”. Also, the skeletal muscle function entry in data set [3] is recorded as “able to improve skeletal muscle function”.
For `O=C(N1CCN(Cc2ccc3c(c2)OCO3)CC1)N1CCSc2ccccc2C1` [S101], in data set [4], the EC50 worked out at 105 nM. In data set [5], this molecule returned an IC50 of 4410 nM. Also, the “Individual Data (% Inhibition)” value in data set [5] (0.01 μM, listed as ARM101, 0.01 µM) was determined as 2.5%; in data set [5] (0.1 μM, listed as ARM101, 0.1 µM) it was 7.6%; in data set [5] (1 μM, listed as ARM101, 1 µM), 27.0%; in data set [5] (10 μM, listed as ARM101, 10 µM), 64.9%. The results for the inhibition at 5 min, 0.01 µM in data set [6] (setting [7]) and in data set [6] (Mean % hERG Inhibition) were 4.3% and 3.4%, respectively. Further, the inhibition at 5 min, 0.1 µM in data set [6] (setting [7]) is 5.1%; in data set [6] (Mean % hERG Inhibition), 6.4%. Moreover, the inhibition at 5 min, 1 µM was 18.9% in data set [6] (setting [7]) and 23% in data set [6] (Mean % hERG Inhibition). For the same molecule, the inhibition at 5 min, 10 µM is 66.7% in data set [6] (setting [8]); 65.8% in data set [6] (Mean % hERG Inhibition, 10 μM); below 50% in data set [6] (setting [9]).
Turning to `CCN(CC)C(=O)N1CCSc2ccccc2C1` [S75], in data set [4], the EC50 turned out to be 150 nM. In addition, the “Individual Data (% Inhibition)” value in data set [5] (0.01 μM, listed as ARM075, 0.01 µM) came out at 1.1%; in data set [5] (0.1 μM, listed as ARM075, 0.1 µM) it was 4.8%; in data set [5] (1 μM, listed as ARM075, 1 µM) it was 4.1%; in data set [5] (10 μM, listed as ARM075, 10 µM) it was 17.2%. The inhibition at 5 min, 0.01 µM in data set [6] (setting [7]) was 1.7%; in data set [6] (Mean % hERG Inhibition) it was 1.4%. Further, the inhibition at 5 min, 0.1 µM stood at 2.6% in data set [6] (setting [7]) and 3.7% in data set [6] (Mean % hERG Inhibition). The inhibition at 5 min, 1 µM came to 3.7% in data set [6] (setting [7]) and 3.9% in data set [6] (Mean % hERG Inhibition). Further, the inhibition at 5 min, 10 µM is 14.7% in data set [6] (setting [8]); 16% in data set [6] (Mean % hERG Inhibition, 10 μM); below 50% in data set [6] (setting [9]).
The molecule `COc1ccc2c(c1)CNCCS2` [S26] returned an EC50 in data set [4] of 40 nM. This molecule also came in with an IC50 in data set [5] of 7030 nM. In addition, the “Individual Data (% Inhibition)” value in data set [5] (0.01 μM) was 8.7%; in data set [5] (0.1 μM), 8.6%; in data set [5] (1 μM) it was 13.2%; in data set [5] (10 μM) it was 60.1%. The inhibition at 5 min, 0.01 µM turned out to be 9.1% in data set [6] (setting [7]) and 8.9% in data set [6] (Mean % hERG Inhibition). Moreover, the inhibition at 5 min, 0.1 µM turned out to be 12.3% in data set [6] (setting [7]) and 10.5% in data set [6] (Mean % hERG Inhibition). The figures for the inhibition at 5 min, 1 µM in data set [6] (setting [7]) and in data set [6] (Mean % hERG Inhibition) were 11.3% and 12.3%, respectively. The inhibition at 5 min, 10 µM in data set [6] (setting [8]) was found to be 56.4%; in data set [6] (Mean % hERG Inhibition, 10 μM), 58.3%.
